# US10668168B2, “Method for removing weakly bound functional moieties from cell targeting conjugates” (priority 2015, dated 2020)
# Tested on: NBD-4Py-Lx-trastuzumab conjugate
# Test: Stripping efficiency of S- and N-donors: released NBD label from trastuzumab conjugate
# Format: physicochemical
# Conditions: agent 10 mM final, 37 °C, 30 minutes stripping
# Procedure: The percentage of released NBD label (excitation and emission wavelength of 485 nm and 535 nm, respectively) was determined spectrophotometrically. The conjugation mixture was precipitated with 2 volume equivalents acetonitrile followed by centrifugation of the formed suspension (5 minutes, 14K rpm). By measuring the fluorescence of the supernatant, the percentage of released NBD label was determined.
# NBD-4Py-Lx-Cl (133 microliters, 5 mM in 20 mM NaCl, 20 equiv.) was added to a solution of trastuzumab, used in its commercial formulation, (238 microliters, 21 mg/ml) and HEPES buffer (12.3 microliters, pH 7.47, 20 mM final concentration). The mixture was placed in a THERMOMIXER® at 37° C. for 4 hours, followed by purification using a prewashed PD10 column which was eluted with 0.9% NaCl. The purified conjugate was incubated with PBS or the S and N-donors as listed above (10 mM final concentration) in a THERMOMIXER® at 37° C. for 30 minutes. With size exclusion chromatography conjugation was clearly observed. Furthermore no aggregation was observed. The NBD/mAb ratio of all the conjugates were between 4.0 and 4.2.
# The percentage of the released NBD label was determined as described in Example B.
row,SMILES,Released label (%)
1,"O=S([O-])([O-])=S.[Na+].[Na+] [NaSTS, sodium thiosulfate]",52.4
2,CSCC[C@H](NC(C)=O)C(=O)O [N-acetyl-1-methionine],12.2
3,N[C@@H](CS)C(=O)O [L-cysteine],36.4
4,N[C@@H](Cc1c[nH]cn1)C(=O)O [Histidine],5.9
5,"N#C[S-].[K+] [KSCN, potassium thiocyanate]",35.9
